The target of one assay is IKZF1 (Homo sapiens (Human), UniProt Q13422+Q96SW2). Nature of the assay: In vitro IKZF1 HiBit Assay (HEK293T Flp-in-HiBiT-IKZF1 stable cell line). As to conditions: HEK293T Flp-in-HiBiT-IKZF1 stable cell line, 6 hrs incubation; for DC50: read-out: IKZF1 HiBit DC50; for Dmax: HEK-293T, read-out: IKZF1 HiBit Dmax (%). The format is cell-based. The gist of the method:
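HEK293T Flp-in cells carrying N-terminal HiBiT-tagged IKZF1 were exposed to compound (0.1% DMSO) for 6 h at 3000 cells/well. HiBiT luminescence was read after lytic LgBiT detection. DC50 and Dmax were taken from DMSO-normalized dose-response curves.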

In the next assay the target is CRBN/DDB1 (Homo sapiens (Human), UniProt Q96SW2). As to the kind of experiment: IC50 measurements for binding to CRBN/DDB1 (HTRF). The note with it: His tagged CRBN+DDB, Cy5-labeled Thalidomide probe, one hour. The gist of the method: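 HTRF competition binding with 2 nM His-tagged CRBN-DDB1 complex, 60 nM Cy5-thalidomide probe and 0.4 nM anti-His Tb cryptate in 50 mM HEPES pH 7.5, 1 mM TCEP, 0.01% Brij-35, 50 mM NaCl, 0.1% BSA. Read after 1 h at room temperature; IC50 from four-parameter dose-response fit.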

Assay [1] addresses T1, IKZF2 (Homo sapiens (Human), UniProt Q96SW2+Q9UKS7). As to the kind of experiment: In vitro IKZF2 FACS Assay in Jurkat cells. The format is cell-based. As to conditions: 24 hrs; for DC50: half maximal degradation concentration; for Dmax: maximal degradation percentage. On the procedure: In vitro IKZF2 FACS Assay
DC50, A: <1 nM; B: 1-10 nM; C: 10-100 nM; D: 100-1000 nM; E: >1000 nM. Dmax, A: >80%; B: 60-80%; C: 40-60%; D: 20-40%; E: <20%.

For assay [2], the target named is T1, IKZF2. Nature of the assay: In vitro IKZF2 HiBit Assay (HEK293T Flp-in-HiBiT cells). As to conditions: HEK293T Flp-in-HiBiT cells, 6 hrs incubation; for DC50: read-out: IKZF2 HiBit DC50; for Dmax: HEK-293T, read-out: IKZF2 HiBit Dmax (%). The format is cell-based. An outline of the steps: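 HEK293T Flp-in cells carrying an endogenous N-terminal HiBiT tag on IKZF2 were exposed to compound for 6 h at 0.1% DMSO. The dilution series was 11 doses at 3-fold, diluted from 1 mM. Nano-Glo HiBiT lytic luminescence, normalized to DMSO, gave DC50 for 50% degradation and Dmax across the concentration range, both reported in letter bins.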
(HiBiT is a short tag that completes a luciferase, so light tracks the accessible tagged protein.)

Molecules are shown by their SMILES. pIC50: −log10 of the molar value.

CRBN/DDB1, sequence (Q96SW2 whole entry, species assumed): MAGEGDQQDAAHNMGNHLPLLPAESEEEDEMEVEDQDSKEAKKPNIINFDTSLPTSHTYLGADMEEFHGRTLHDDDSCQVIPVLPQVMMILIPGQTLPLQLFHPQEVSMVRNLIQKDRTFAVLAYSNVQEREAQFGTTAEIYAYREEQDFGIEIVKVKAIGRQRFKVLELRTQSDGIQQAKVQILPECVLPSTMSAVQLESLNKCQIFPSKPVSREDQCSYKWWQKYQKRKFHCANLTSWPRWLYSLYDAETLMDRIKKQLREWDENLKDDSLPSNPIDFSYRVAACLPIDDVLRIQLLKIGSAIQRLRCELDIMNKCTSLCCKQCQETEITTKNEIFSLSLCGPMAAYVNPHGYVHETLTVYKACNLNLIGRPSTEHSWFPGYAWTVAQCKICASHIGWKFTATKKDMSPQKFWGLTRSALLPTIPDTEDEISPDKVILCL
CRBN/DDB1, sequence (Q16531 whole entry partner, species assumed): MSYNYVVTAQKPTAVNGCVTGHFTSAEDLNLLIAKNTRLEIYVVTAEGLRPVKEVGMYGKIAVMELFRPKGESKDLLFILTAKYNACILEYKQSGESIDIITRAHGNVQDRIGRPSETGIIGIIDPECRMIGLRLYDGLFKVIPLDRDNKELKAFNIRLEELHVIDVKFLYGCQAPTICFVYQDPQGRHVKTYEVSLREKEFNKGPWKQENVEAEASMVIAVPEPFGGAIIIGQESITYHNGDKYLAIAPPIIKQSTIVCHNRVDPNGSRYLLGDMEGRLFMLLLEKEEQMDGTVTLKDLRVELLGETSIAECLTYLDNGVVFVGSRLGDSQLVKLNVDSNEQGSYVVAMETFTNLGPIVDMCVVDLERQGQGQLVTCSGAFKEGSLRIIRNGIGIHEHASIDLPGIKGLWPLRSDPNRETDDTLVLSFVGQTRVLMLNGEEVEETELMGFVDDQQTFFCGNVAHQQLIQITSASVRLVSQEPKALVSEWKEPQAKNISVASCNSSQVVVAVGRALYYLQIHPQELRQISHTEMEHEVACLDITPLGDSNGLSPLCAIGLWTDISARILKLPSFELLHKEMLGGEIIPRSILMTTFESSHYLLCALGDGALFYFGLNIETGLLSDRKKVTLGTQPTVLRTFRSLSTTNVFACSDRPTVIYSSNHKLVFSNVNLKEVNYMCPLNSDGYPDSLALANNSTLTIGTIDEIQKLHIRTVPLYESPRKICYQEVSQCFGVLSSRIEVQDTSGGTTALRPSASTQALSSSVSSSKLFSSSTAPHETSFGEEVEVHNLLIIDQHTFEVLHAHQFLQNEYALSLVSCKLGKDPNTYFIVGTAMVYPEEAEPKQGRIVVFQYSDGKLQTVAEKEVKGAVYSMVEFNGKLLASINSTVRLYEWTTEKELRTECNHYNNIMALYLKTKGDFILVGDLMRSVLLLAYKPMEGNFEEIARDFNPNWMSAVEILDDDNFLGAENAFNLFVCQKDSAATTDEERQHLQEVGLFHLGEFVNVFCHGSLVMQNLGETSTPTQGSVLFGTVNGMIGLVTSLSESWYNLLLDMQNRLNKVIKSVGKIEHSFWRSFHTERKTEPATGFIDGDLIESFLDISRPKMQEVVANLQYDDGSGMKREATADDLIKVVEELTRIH
IKZF1, sequence (Q13422 whole entry): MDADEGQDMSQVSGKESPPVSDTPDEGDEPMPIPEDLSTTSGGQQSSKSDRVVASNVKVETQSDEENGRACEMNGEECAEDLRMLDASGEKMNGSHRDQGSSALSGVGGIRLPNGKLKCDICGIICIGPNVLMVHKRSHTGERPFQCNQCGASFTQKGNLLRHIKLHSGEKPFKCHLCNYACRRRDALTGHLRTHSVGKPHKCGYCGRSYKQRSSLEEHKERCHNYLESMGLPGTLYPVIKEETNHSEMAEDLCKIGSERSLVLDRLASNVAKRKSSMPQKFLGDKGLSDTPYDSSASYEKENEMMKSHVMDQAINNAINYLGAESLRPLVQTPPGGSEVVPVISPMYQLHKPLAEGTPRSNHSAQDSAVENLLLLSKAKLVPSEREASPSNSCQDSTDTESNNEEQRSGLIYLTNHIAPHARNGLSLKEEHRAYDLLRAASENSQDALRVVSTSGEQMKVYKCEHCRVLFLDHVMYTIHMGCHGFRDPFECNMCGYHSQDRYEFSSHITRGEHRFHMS
IKZF1, sequence (Q96SW2 whole entry): as the sequence (Q96SW2 whole entry, species assumed) above
IKZF1, sequence (Q16531 2-1140 partner): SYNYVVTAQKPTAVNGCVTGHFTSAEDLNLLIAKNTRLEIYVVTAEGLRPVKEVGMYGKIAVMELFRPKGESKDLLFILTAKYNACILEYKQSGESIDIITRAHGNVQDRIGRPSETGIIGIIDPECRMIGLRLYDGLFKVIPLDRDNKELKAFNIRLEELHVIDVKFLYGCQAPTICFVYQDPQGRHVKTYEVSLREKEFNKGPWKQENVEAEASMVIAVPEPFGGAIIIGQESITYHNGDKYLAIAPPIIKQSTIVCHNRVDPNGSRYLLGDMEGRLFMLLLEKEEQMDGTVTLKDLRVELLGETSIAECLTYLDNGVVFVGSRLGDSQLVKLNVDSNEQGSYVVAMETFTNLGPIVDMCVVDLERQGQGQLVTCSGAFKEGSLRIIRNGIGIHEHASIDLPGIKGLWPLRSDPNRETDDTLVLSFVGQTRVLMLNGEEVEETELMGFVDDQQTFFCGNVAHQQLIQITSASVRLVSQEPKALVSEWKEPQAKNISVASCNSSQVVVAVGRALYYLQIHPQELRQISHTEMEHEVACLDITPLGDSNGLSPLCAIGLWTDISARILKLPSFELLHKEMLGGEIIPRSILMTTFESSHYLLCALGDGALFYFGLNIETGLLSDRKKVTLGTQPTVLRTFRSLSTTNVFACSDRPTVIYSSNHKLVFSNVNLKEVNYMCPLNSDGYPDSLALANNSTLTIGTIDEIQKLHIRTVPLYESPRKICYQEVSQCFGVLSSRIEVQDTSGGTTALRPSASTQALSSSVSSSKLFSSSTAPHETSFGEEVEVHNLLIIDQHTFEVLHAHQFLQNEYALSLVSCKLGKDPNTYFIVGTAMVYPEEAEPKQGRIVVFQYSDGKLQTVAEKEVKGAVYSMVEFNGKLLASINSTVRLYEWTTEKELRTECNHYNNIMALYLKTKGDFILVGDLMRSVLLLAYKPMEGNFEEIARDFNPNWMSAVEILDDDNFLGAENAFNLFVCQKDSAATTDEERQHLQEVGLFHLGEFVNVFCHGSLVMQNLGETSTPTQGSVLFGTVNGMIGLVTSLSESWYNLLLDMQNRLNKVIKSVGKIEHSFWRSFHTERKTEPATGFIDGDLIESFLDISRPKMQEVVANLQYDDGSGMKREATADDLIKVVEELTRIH
T1 sequence (Q9UKS7 whole entry): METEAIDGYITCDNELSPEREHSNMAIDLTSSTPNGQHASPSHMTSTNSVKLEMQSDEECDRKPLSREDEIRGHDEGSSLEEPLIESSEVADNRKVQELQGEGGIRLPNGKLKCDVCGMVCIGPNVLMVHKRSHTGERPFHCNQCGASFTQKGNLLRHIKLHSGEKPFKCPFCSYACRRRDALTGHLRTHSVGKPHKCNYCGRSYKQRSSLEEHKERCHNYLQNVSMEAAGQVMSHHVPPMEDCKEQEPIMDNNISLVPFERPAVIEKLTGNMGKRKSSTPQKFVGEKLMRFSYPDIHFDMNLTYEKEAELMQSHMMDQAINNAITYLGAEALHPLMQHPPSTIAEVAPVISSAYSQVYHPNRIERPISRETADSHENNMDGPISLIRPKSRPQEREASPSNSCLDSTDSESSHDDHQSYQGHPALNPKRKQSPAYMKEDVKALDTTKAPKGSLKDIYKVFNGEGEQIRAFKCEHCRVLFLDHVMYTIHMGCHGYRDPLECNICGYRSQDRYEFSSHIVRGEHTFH
T1 sequence (Q96SW2 whole entry): as the sequence (Q96SW2 whole entry, species assumed) above
T1 sequence (Q16531 2-1140 partner): as the sequence (Q16531 2-1140 partner) above

By pIC50 is commonly meant the IC50 on a negative log10 scale, so that one unit is a factor of ten. A high value points to a small IC50. `Cn1ccc2c(CN3CCCC3)cc(-c3ccc4c(c3)CN(C3CCC(=O)NC3=O)C4=O)nc21` (stereo not drawn) [Example 55, 3-(5-(1-methyl-4-(pyrrolidin-1-ylmethyl)-1H-pyrrolo[2,3-b]pyridin-6-yl)-1-oxoisoindolin-2-yl) piperidine-2,6-dione]: the results for the DC50 on IKZF1, on IKZF2 [1] and at IKZF2 [2] were greater than 10000 nM, less than 1 nM and less than 1 nM, respectively. The figures for the Dmax at IKZF1, on IKZF2 [1] and at IKZF2 [2] were 20 to 40%, greater than 80% and greater than 80%, respectively. The compound further gave a pIC50 on CRBN/DDB1 of 6.30 to 7.00.
For `CC(C)Nc1n[nH]c2c(CN3CCCC3)cc(-c3ccc4c(c3Cl)CN(C3CCC(=O)NC3=O)C4=O)nc12` (stereo not drawn) [Example 227, 3-(4-chloro-5-(3-(isopropylamino)-7-(pyrrolidin-1-ylmethyl)-1H-pyrazolo[4,3-b]pyridin-5-yl)-1-oxoisoindolin-2-yl) piperidine-2,6-dione], the figures for the DC50 on IKZF1, on IKZF2 [1] and at IKZF2 [2] were greater than 10000 nM, 10 to 100 nM and 1 to 10 nM, respectively. Moreover, the values for the Dmax at IKZF1, on IKZF2 [1] and at IKZF2 [2] were less than 20%, greater than 80% and 60 to 80%, respectively. At CRBN/DDB1, this compound had a pIC50 of 6.00 to 6.30.
`O=C1CCC(N2Cc3cc(-c4cc(CN5CCC6(CC5)CC6)cc5cncn45)ccc3C2=O)C(=O)N1` (stereo not drawn) [Example 8, 3-(5-(7-((6-azaspiro[2.5]octan-6-yl)methyl)imidazo[1,5-a]pyridin-5-yl)-1-oxoisoindolin-2-yl) piperidine-2,6-dione]: the DC50 on IKZF1 is greater than 10000 nM; at IKZF2 [1], 10 to 100 nM; at IKZF2 [2], 10 to 100 nM. The Dmax at IKZF1 is less than 20%; on IKZF2 [1], 40 to 60%; at IKZF2 [2], 40 to 60%. The compound further gave a pIC50 on CRBN/DDB1 of 5.30 to 6.00.
Consider `O=C1CCC(N2Cc3cc(-c4cc(CN5CCCC5)c5cn[nH]c5n4)ccc3C2=O)C(=O)N1` (stereo not drawn) [Example 105, 3-(1-oxo-5-(4-(pyrrolidin-1-ylmethyl)-1H-pyrazolo[3,4-b]pyridin-6-yl)isoindolin-2-yl) piperidine-2,6-dione], for which the values for the DC50 at IKZF1, at IKZF2 [1] and at IKZF2 [2] were 1000 to 10000 nM, 1 to 10 nM and 1 to 10 nM, respectively. The Dmax on IKZF1 is 20 to 40%; on IKZF2 [1], greater than 80%; on IKZF2 [2], greater than 80%. The compound further had a pIC50 at CRBN/DDB1 of 6.00 to 6.30.
As to `O=C1CCC(N2Cc3cc(-c4cc(CN5CC6COCC6C5)c5ccn(C6COC6)c5n4)ccc3C2=O)C(=O)N1` (stereo not drawn) [Example 186, 3-(5-(1-(oxetan-3-yl)-4-((tetrahydro-1H-furo[3,4-c]pyrrol-5 (3H)-yl)methyl)-1H-pyrrolo[2,3-b]pyridin-6-yl)-1-oxoisoindolin-2-yl) piperidine-2,6-dione], the DC50 at IKZF1 is greater than 10000 nM; on IKZF2 [1], 1 to 10 nM; on IKZF2 [2], 1 to 10 nM. Besides, the Dmax at IKZF1 is less than 20%; at IKZF2 [1], greater than 80%; at IKZF2 [2] it was greater than 80%. This compound showed a pIC50 at CRBN/DDB1 of 6.30 to 7.00.
For the compound `Nc1n[nH]c2c(CN3CCC(F)CC3)cc(-c3ccc4c(c3)CN(C3CCC(=O)NC3=O)C4=O)nc12` (stereo not drawn) [Example 212, 3-(5-(3-amino-7-((4-fluoropiperidin-1-yl)methyl)-1H-pyrazolo[4,3-b]pyridin-5-yl)-1-oxoisoindolin-2-yl) piperidine-2,6-dione], the DC50 at IKZF1 is 1 to 10 nM; on IKZF2 [1], 10 to 100 nM; at IKZF2 [2] it was 1 to 10 nM. Also, the Dmax was 20 to 40% on IKZF1, greater than 80% on IKZF2 [1] and 60 to 80% on IKZF2 [2]. Further, the pIC50 on CRBN/DDB1 is greater than 7.00.
As for `O=C1CCC(N2Cc3cc(-c4ccc(CN5CCCC5)c5cncn45)ccc3C2=O)C(=O)N1` (stereo not drawn) [Example 54, 3-(1-oxo-5-(8-(pyrrolidin-1-ylmethyl)imidazo[1,5-a]pyridin-5-yl)isoindolin-2-yl) piperidine-2,6-dione], the DC50 at IKZF1 is greater than 10000 nM; on IKZF2 [1], less than 1 nM; on IKZF2 [2] it was 1000 to 10000 nM. For the same compound, the Dmax at IKZF1 is less than 20%; at IKZF2 [1], greater than 80%; on IKZF2 [2], less than 20%. At CRBN/DDB1, this compound showed a pIC50 of 5.30 to 6.00.
With `O=C1CCC(N2Cc3cc(-c4cc(CN5CCC(F)CC5)c5cc[nH]c5n4)ccc3C2=O)C(=O)N1` (stereo not drawn) [Example 116, 3-(5-(4-((4-fluoropiperidin-1-yl)methyl)-1H-pyrrolo[2,3-b]pyridin-6-yl)-1-oxoisoindolin-2-yl) piperidine-2,6-dione], the DC50 on IKZF1 is 1 to 10 nM; on IKZF2 [1], 1 to 10 nM; on IKZF2 [2] it was less than 1 nM. For the same compound, the Dmax was 20 to 40% at IKZF1, greater than 80% on IKZF2 [1] and greater than 80% on IKZF2 [2]. This compound also had a pIC50 at CRBN/DDB1 of 6.30 to 7.00.
Take `O=C1CCC(N2Cc3cc(-c4cc(CN5CCCC5)cc5cncn45)ccc3C2=O)C(=O)N1` (stereo not drawn) [Example 1, 3-(1-oxo-5-(7-(pyrrolidin-1-ylmethyl)imidazo[1,5-a]pyridin-5-yl)isoindolin-2-yl) piperidine-2,6-dione]: the figures for the DC50 at IKZF1, on IKZF2 [1] and at IKZF2 [2] were greater than 10000 nM, 10 to 100 nM and 10 to 100 nM, respectively. Besides, the Dmax was less than 20% at IKZF1, 60 to 80% on IKZF2 [1] and 60 to 80% at IKZF2 [2]. This compound also had a pIC50 at CRBN/DDB1 of 6.30 to 7.00.
For `CC(C)Nc1n[nH]c2c(CN3CCCC3)cc(-c3ccc4c(c3)CN(C3CCC(=O)NC3=O)C4=O)nc12` (stereo not drawn) [Example 193, 3-(5-(3-(isopropylamino)-7-(pyrrolidin-1-ylmethyl)-1H-pyrazolo[4,3-b]pyridin-5-yl)-1-oxoisoindolin-2-yl) piperidine-2,6-dione], the DC50 at IKZF1 is 10 to 100 nM; at IKZF2 [1], 1 to 10 nM; at IKZF2 [2], 1 to 10 nM. Further, the Dmax at IKZF1 is 20 to 40%; on IKZF2 [1], 40 to 60%; on IKZF2 [2] it was greater than 80%. Besides, the pIC50 on CRBN/DDB1 is 5.30 to 6.00.
On to `CN(C)c1ccnc2c(CN3CCCC3)cc(-c3ccc4c(c3)CN(C3CCC(=O)NC3=O)C4=O)nc12` (stereo not drawn) [Example 237, 3-(5-(8-(dimethylamino)-4-(pyrrolidin-1-ylmethyl)-1,5-naphthyridin-2-yl)-1-oxoisoindolin-2-yl) piperidine-2,6-dione], for which the results for the DC50 on IKZF1, at IKZF2 [1] and on IKZF2 [2] were 1 to 10 nM, 10 to 100 nM and 10 to 100 nM, respectively. Moreover, the Dmax at IKZF1 lay within 20 to 40%; on IKZF2 [1] it was 40 to 60%; on IKZF2 [2], 60 to 80%. In addition, the negative logarithm of the IC50 (pIC50) on CRBN/DDB1 was 5.30 to 6.00.
`Nc1n[nH]c2c(CN3CCC(O)CC3)cc(-c3ccc4c(c3)CN(C3CCC(=O)NC3=O)C4=O)nc12` (stereo not drawn) [Example 205, 3-(5-(3-amino-7-((4-hydroxypiperidin-1-yl)methyl)-1H-pyrazolo[4,3-b]pyridin-5-yl)-1-oxoisoindolin-2-yl) piperidine-2,6-dione]: the values for the DC50 on IKZF1, at IKZF2 [1] and at IKZF2 [2] were 1000 to 10000 nM, 100 to 1000 nM and 10 to 100 nM, respectively. The Dmax fell in the range of 20 to 40% on IKZF1, 60 to 80% at IKZF2 [1] and 60 to 80% at IKZF2 [2]. At CRBN/DDB1, this compound gave a pIC50 of 6.00 to 6.30.
As for `O=C1CCC(N2Cc3cc(-c4cc(CN5CCCC5)c5[nH]ncc5n4)ccc3C2=O)C(=O)N1` (stereo not drawn) [Example 307, 3-(1-oxo-5-(7-(pyrrolidin-1-ylmethyl)-1H-pyrazolo[4,3-b]pyridin-5-yl)isoindolin-2-yl) piperidine-2,6-dione], the DC50 at IKZF1 fell in the range of 1000 to 10000 nM; at IKZF2 [1], 1 to 10 nM; at IKZF2 [2], 1 to 10 nM. The Dmax on IKZF1 is 20 to 40%; at IKZF2 [1] it was greater than 80%; at IKZF2 [2], greater than 80%. At CRBN/DDB1, the pIC50 was 6.30 to 7.00.
Turning to `O=C1CCC(N2Cc3cc(-c4cc(CN5CCC(CO)CC5)c5ccn(C6COC6)c5n4)ccc3C2=O)C(=O)N1` (stereo not drawn) [Example 163, 3-(5-(4-((4-(hydroxymethyl)piperidin-1-yl)methyl)-1-(oxetan-3-yl)-1H-pyrrolo[2,3-b]pyridin-6-yl)-1-oxoisoindolin-2-yl) piperidine-2,6-dione], the values for the DC50 at IKZF1, on IKZF2 [1] and on IKZF2 [2] were 100 to 1000 nM, 1 to 10 nM and 1 to 10 nM, respectively. Besides, the Dmax was 20 to 40% at IKZF1, greater than 80% at IKZF2 [1] and 60 to 80% at IKZF2 [2]. For the same compound, the pIC50 on CRBN/DDB1 is 6.30 to 7.00.
Take `Nc1n[nH]c2c(CN3CC4COCC(C4)C3)cc(-c3ccc4c(c3)CN(C3CCC(=O)NC3=O)C4=O)nc12` (stereo not drawn) [Example 215, 3-(5-(7-((3-oxa-7-azabicyclo[3.3.1]nonan-7-yl)methyl)-3-amino-1H-pyrazolo[4,3-b]pyridin-5-yl)-1-oxoisoindolin-2-yl) piperidine-2,6-dione]: the DC50 is 100 to 1000 nM on IKZF1, 10 to 100 nM on IKZF2 [1] and 10 to 100 nM on IKZF2 [2]. The Dmax at IKZF1 was 20 to 40%; at IKZF2 [1], greater than 80%; on IKZF2 [2], greater than 80%. On CRBN/DDB1, the pIC50 was 6.30 to 7.00.

The values above are taken from patent publication US20250214991A1 (Oncopia Therapeutics, Inc. d/b/a/ SK Life Science Labs, priority 2022, published 2025).
